Test results taken from ChEMBL document CHEMBL5465560, “Selectivity Literature for EUbOPEN Chemogenomic Library” (2024).
Values belong to the compound of their own block, whether it stands above or below them.

Assays:
[1] = target: Protein-tyrosine kinase 6 (Homo sapiens, UniProt Q13882); assay: Selectivity interaction (KinomeScan (DiscoverX)) EUB0000607a PTK6; details: at 10 µM
[2] = target: T1, Ephrin type-A receptor 8 (Homo sapiens) (UniProt P29322); details: at 10 µM
T1 sequence (whole entry): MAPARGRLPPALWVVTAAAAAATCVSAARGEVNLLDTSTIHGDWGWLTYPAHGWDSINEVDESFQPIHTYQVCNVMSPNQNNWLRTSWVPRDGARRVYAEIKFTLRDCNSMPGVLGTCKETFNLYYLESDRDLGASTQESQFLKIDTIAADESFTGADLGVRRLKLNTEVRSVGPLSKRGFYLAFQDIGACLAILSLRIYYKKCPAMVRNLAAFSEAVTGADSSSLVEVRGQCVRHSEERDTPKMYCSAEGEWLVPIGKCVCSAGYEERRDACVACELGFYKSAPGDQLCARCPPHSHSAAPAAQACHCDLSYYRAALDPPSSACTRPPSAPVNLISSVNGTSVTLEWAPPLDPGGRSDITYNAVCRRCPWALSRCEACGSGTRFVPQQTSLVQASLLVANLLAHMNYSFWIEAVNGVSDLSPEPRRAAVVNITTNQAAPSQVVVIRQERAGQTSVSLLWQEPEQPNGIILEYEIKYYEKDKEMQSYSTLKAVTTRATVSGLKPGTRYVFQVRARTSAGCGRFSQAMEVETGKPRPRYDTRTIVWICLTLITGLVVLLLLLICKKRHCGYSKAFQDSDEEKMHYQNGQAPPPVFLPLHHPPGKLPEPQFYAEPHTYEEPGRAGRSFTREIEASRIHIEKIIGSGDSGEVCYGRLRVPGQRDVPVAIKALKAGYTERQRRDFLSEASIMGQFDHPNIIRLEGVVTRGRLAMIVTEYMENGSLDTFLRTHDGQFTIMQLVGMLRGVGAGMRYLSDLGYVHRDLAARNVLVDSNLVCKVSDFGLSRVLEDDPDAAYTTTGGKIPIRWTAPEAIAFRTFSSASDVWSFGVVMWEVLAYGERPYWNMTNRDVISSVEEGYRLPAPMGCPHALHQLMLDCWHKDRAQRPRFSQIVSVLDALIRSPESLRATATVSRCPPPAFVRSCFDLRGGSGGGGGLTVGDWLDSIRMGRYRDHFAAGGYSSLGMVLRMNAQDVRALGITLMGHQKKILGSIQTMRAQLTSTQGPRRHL

[3] = target: Tyrosine-protein kinase BTK (Homo sapiens, UniProt Q06187); assay: Selectivity interaction (ActivX KiNativ screen (kinase selectivity in THP-1 cell lysates)) EUB0000639a BTK; format: subcellular; details: lysate, at 0.2 µM
Tyrosine-protein kinase BTK, sequence (Q06187 whole entry): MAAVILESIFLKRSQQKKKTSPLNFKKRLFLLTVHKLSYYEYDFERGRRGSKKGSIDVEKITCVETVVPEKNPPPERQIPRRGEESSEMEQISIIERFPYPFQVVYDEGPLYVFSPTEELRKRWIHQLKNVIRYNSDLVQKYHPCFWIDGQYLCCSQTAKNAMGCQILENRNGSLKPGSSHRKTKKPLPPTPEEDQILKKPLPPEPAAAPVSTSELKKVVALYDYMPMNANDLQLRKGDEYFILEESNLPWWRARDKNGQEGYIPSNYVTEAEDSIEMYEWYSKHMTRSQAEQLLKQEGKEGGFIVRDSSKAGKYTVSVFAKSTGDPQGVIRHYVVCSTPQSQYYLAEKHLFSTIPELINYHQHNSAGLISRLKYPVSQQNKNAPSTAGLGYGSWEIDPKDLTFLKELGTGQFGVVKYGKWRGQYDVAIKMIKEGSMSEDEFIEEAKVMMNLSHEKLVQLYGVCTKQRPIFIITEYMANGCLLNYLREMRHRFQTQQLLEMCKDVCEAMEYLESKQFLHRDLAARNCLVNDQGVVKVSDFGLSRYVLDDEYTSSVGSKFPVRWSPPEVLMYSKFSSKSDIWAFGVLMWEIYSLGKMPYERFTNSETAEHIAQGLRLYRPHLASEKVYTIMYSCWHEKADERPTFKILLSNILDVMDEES

[4] = target: T2, cGMP-dependent protein kinase 1 (Homo sapiens) (UniProt Q13976); assay: Selectivity interaction (KinaseProfiler screening (Millipore)) EUB0000601a PRKG1; details: at 3 µM
T2 sequence (whole entry): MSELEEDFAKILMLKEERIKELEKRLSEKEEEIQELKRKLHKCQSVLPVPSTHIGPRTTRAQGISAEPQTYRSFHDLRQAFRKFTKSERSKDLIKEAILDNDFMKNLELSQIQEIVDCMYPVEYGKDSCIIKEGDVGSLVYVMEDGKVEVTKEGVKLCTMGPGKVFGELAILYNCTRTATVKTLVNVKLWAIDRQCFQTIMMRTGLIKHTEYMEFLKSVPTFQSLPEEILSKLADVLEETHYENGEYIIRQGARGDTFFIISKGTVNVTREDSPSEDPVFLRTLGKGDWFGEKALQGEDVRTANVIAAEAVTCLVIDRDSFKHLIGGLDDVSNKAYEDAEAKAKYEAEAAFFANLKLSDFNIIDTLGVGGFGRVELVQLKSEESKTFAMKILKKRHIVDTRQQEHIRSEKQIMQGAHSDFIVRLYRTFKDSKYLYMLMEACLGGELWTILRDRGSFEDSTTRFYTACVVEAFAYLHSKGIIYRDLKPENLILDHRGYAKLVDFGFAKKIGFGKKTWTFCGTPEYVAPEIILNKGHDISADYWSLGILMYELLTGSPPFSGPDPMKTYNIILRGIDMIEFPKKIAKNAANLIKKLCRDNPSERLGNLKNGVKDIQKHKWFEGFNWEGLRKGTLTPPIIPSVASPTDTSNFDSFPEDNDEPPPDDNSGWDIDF

[5] = target: Ephrin type-A receptor 5 (Homo sapiens) (UniProt P54756); assay: Selectivity interaction (KinomeScan (DiscoverX)) EUB0000595a EPHA5; details: at 10 µM
Ephrin type-A receptor 5 (Homo sapiens), sequence (P54756 whole entry): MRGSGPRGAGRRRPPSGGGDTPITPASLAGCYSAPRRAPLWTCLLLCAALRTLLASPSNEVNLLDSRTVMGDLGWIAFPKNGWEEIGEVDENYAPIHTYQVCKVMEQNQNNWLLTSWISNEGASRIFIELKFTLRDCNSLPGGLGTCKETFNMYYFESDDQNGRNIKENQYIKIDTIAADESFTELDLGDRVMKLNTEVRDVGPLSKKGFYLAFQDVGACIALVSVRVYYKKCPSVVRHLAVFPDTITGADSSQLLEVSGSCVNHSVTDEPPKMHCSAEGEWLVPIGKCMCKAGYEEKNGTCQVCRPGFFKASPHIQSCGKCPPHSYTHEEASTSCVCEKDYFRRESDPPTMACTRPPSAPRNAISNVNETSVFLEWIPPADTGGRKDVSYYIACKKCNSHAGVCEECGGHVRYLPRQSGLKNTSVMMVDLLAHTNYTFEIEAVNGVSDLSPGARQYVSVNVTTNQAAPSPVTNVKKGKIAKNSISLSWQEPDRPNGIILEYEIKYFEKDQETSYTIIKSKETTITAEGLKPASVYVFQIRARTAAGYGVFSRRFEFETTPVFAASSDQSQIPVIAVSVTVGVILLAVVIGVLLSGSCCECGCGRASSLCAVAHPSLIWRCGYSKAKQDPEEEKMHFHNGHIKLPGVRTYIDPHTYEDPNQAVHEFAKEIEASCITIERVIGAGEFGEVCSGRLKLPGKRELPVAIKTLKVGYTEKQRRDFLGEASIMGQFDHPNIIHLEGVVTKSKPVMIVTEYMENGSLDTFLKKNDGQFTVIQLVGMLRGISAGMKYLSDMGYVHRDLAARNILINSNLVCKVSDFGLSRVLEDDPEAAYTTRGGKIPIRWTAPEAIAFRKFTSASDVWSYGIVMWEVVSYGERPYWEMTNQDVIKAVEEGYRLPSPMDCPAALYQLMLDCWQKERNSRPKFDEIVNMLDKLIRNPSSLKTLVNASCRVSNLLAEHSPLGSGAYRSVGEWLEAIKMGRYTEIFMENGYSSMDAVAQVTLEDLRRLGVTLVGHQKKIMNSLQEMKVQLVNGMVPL

[6] = target: 5'-AMP-activated protein kinase catalytic subunit alpha-2 (Homo sapiens) (UniProt P54646); assay: Selectivity interaction (KinomeScan (DiscoverX)) EUB0000595a PRKAA2; details: at 10 µM
5'-AMP-activated protein kinase catalytic subunit alpha-2 (Homo sapiens), sequence (P54646 whole entry, looked up): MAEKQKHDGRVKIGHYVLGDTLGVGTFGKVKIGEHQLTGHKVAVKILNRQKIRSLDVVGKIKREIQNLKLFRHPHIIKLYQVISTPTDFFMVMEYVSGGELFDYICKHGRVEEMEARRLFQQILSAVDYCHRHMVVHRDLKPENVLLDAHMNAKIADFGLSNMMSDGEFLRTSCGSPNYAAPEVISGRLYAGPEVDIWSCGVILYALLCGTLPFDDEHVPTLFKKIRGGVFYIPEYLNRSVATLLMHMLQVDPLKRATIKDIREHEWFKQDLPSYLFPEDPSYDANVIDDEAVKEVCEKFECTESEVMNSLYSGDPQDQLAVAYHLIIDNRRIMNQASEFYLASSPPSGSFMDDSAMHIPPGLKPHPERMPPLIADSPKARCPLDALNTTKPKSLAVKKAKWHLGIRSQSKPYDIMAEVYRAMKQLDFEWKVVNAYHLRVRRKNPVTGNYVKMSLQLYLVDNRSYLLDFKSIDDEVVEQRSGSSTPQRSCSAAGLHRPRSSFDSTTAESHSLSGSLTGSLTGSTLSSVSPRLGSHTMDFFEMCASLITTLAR

[7] = target: Mitogen-activated protein kinase kinase kinase 11 (Homo sapiens) (UniProt Q16584); assay: Selectivity interaction (Ambit KINOMEscan and KiNATiv profiling in Jurkat cells) EUB0000090b MAP3K11; format: cell-based; details: at 1 µM
Mitogen-activated protein kinase kinase kinase 11 (Homo sapiens), sequence (Q16584 whole entry, looked up): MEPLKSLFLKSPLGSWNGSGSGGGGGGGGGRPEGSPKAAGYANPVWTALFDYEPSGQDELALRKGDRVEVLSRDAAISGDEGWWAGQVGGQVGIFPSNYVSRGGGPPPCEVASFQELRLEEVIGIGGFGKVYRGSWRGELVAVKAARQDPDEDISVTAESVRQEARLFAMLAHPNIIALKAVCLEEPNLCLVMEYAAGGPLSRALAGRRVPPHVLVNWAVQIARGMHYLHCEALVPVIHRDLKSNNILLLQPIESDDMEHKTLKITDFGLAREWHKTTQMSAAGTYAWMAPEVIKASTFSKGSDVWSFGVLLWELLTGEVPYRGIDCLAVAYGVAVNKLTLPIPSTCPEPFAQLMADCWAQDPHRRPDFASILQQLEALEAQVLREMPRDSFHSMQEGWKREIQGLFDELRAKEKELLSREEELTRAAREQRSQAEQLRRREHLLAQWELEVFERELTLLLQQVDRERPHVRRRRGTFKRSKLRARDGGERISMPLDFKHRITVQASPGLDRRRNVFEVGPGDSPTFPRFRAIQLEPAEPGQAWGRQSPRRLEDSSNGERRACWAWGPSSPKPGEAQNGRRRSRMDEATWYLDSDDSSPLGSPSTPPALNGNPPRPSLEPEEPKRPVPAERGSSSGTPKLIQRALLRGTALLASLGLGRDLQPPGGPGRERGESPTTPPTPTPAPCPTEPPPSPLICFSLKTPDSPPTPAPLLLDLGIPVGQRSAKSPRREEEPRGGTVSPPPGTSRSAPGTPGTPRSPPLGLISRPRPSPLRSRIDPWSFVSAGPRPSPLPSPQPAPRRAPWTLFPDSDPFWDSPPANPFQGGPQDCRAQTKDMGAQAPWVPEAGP

[8] = target: Dual specificity testis-specific protein kinase 1 (Homo sapiens) (UniProt Q15569); assay: Selectivity interaction (KinomeScan (DiscoverX)) EUB0000045b TESK1
Dual specificity testis-specific protein kinase 1 (Homo sapiens), sequence (Q15569 whole entry, looked up): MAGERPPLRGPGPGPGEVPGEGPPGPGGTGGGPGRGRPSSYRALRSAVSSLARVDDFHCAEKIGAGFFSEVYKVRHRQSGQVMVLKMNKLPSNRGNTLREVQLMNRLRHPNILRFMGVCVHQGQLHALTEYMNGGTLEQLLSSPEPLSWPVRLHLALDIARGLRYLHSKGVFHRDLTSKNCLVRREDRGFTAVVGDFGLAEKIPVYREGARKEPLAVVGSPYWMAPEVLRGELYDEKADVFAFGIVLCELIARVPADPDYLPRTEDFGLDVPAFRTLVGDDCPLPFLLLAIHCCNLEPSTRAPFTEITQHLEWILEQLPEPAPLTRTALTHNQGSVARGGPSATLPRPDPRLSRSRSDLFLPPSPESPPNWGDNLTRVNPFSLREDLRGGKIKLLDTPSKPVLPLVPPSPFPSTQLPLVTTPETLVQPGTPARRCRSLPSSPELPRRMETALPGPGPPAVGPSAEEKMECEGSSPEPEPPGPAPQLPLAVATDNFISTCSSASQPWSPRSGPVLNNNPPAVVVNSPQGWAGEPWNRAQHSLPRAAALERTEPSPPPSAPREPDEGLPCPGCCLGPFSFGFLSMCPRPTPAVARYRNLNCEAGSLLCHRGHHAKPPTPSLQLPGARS

[9] = target: Serine/threonine-protein kinase 38 (Homo sapiens) (UniProt Q15208); assay: Selectivity interaction (KinomeScan (DiscoverX)) EUB0001079a STK38; details: at 1 µM
Serine/threonine-protein kinase 38 (Homo sapiens), sequence (Q15208 2-465 limits assumed): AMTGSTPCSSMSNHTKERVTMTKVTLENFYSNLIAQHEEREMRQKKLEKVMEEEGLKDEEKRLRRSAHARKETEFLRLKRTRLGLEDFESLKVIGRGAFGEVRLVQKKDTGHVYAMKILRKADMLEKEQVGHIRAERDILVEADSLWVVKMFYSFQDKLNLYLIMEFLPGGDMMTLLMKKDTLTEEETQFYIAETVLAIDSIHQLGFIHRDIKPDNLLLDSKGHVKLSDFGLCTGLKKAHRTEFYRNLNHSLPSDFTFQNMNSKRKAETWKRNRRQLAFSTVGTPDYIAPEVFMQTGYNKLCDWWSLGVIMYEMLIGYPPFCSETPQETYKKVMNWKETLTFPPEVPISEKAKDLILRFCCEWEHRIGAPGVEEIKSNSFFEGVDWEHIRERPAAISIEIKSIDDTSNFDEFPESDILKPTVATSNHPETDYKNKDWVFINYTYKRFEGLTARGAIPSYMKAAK

[10] = target: T3, Myosin light chain kinase family member 4 (Homo sapiens) (UniProt Q86YV6); assay: Selectivity interaction (KinomeScan (DiscoverX)) EUB0000618a MYLK4; details: at 10 µM
T3 sequence (whole entry): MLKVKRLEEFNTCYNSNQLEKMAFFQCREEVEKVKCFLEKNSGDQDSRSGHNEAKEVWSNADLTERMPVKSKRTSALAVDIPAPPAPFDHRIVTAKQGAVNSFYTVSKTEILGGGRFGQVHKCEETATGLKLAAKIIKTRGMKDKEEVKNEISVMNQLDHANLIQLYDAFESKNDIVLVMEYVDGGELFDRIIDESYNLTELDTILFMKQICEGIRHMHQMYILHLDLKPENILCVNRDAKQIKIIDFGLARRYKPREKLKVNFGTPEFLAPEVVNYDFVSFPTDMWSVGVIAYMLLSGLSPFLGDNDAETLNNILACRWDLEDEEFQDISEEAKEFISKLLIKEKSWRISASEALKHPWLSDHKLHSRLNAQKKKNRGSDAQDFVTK

[11] = target: Mitogen-activated protein kinase kinase kinase 4 (Homo sapiens) (UniProt Q9Y6R4); assay: Selectivity interaction (ActivX KiNativ screen (ex vivo kinase selectivity in human PBMCs)) EUB0001619a MAP3K4; format: cell-based; details: PBMC, at 1 µM

Protein-tyrosine kinase 6, sequence (Q13882 whole entry, looked up): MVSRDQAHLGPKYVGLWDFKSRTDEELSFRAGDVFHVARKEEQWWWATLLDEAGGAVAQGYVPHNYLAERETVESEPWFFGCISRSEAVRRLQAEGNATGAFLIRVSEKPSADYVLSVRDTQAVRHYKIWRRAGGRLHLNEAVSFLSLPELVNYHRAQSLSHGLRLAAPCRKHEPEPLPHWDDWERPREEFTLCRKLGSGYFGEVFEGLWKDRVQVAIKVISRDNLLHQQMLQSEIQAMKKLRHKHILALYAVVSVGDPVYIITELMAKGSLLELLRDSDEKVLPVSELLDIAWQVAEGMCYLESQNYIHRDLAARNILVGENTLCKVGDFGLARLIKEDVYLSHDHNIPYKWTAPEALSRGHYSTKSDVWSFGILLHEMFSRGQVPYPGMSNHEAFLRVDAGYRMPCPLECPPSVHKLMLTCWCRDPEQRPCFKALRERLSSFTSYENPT

SMILES: CNC(=O)Nc1ccc(-c2nc(N3CC4CCC(C3)O4)c3cnn(C4CCC5(CC4)OCCO5)c3n2)cc1
% of control [1]: 55%

% of control [2]: 100%
SMILES: CCN(CC)CCCCNc1ncc2cc(-c3cc(OC)cc(OC)c3)c(NC(=O)NC(C)(C)C)nc2n1

% of inhibition [3]: -2.7%
SMILES: CC[C@@H]1[C@H](F)C(=O)N[C@@H]1COc1nccc2cc(C(N)=O)c(OC)cc12 [ZIMLOVISERTIB]

% of inhibition [4]: 41%
SMILES: CCc1cc(Nc2nccc(-c3c(-c4ccc(OC)c(C(=O)Nc5c(F)cccc5F)c4)nc4ccccn34)n2)c(OC)cc1N1CCC(N2CCN(S(C)(=O)=O)CC2)CC1

SMILES: COCC(=O)NC/C=C/c1ccc2ncnc(Nc3ccc(Oc4ccc(C)nc4)c(C)c3)c2c1 [CP-724714]
% of control [5]: 100%
% of control [6]: 100%

SMILES: CN(C)C/C=C/C(=O)Nc1ccc(C(=O)N2CCCC(Nc3ncc(Cl)c(-c4c[nH]c5ccccc45)n3)C2)cc1 (configuration not stated)
% of control [7]: 84%

SMILES: C=CC(=O)Nc1cc(-n2c(=O)ccc3cnc4ccc(-c5ccc(NS(C)(=O)=O)cc5)cc4c32)ccc1C
% of control ([8]; at 1 µM): 94%
% of control ([8]; at 10 µM): 98%

SMILES: Nc1cnc(N2CCc3cc(S(=O)(=O)Nc4c(F)cc(Cl)cc4F)cc(N4CCCC4=O)c32)nc1 [TP-020n]
% of control [9]: 99%

SMILES: O[C@H]1CC[C@H](Nc2ncc3nc(Nc4c(F)cc(F)cc4F)n([C@H]4CCOC4)c3n2)CC1
% of control [10]: 100%

SMILES: N#Cc1cccc(-c2c[nH]c3ncnc(N4CCOCC4)c23)c1
% of inhibition [11]: 30%
